Source: ChEMBL document CHEMBL1201862, “PubChem BioAssay data set” (2004)
Structures can show the parent of a compound that is named as a salt. Active and inactive are the calls of the source.

Experiments:
[1] = enhancers of respiration in Yfh1-depleted yeast, dose response, Friedreich's ataxia, plus single-dose screen (AID 1465); format: functional;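 note: yeast depleted of Yfh1p frataxin homolog grown on glycerol needing respiration; WST-1 tetrazolium dye reduction as measure of cellular dehydrogenase metabolic activity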
[2] = system: Streptococcus sp. 'group A'; experiment: growth inhibition of control SK(-) GAS strain, dose response, counter-screen for streptokinase expression inhibitor project, luminescence, kanamycin, BacTiterGlo, confirmation (AID 1900); format: functional, organism-based
Escherichia coli [3] = experiment: microbe, parasite or virus in culture
NS3 = NS3 (Hepatitis C virus, UniProt A3EZJ3); experiment: PubChem AID 2173; set-up: species or system Hepacivirus hominis
NS3, sequence (A3EZJ3 whole entry): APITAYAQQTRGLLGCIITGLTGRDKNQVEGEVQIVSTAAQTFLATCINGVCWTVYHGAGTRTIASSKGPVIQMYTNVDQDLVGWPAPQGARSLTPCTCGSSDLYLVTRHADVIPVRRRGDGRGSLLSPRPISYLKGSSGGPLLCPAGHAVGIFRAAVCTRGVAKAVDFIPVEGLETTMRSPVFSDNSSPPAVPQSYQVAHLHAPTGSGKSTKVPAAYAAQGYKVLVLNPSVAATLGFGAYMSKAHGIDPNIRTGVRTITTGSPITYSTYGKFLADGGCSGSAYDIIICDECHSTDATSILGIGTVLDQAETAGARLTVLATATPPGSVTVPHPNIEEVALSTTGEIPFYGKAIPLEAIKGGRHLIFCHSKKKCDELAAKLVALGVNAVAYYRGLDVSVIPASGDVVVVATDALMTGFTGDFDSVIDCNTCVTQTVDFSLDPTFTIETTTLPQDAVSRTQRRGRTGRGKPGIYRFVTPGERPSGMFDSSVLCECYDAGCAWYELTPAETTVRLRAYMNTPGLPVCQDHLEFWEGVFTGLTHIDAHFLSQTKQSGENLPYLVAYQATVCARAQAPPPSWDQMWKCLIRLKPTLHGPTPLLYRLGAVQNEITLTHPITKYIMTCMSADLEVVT

Streptococcus = experiment: Group A Streptococcus viability loss, dose response, counter-screen for streptokinase expression inhibitor project, luminescence, BacTiterGlo (AID 1915); format: functional, organism-based;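 note: potency for reduction of bacterial viability or growth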
[4] = biological target: 1-phosphatidylinositol 4,5-bisphosphate phosphodiesterase beta-3 (Homo sapiens, UniProt Q01970); experiment: Fluorescence-based biochemical high throughput dose response assay to identify inhibitors of phospholipase C isozymes (PLC-B3).
1-phosphatidylinositol 4,5-bisphosphate phosphodiesterase beta-3, sequence (Q01970 whole entry): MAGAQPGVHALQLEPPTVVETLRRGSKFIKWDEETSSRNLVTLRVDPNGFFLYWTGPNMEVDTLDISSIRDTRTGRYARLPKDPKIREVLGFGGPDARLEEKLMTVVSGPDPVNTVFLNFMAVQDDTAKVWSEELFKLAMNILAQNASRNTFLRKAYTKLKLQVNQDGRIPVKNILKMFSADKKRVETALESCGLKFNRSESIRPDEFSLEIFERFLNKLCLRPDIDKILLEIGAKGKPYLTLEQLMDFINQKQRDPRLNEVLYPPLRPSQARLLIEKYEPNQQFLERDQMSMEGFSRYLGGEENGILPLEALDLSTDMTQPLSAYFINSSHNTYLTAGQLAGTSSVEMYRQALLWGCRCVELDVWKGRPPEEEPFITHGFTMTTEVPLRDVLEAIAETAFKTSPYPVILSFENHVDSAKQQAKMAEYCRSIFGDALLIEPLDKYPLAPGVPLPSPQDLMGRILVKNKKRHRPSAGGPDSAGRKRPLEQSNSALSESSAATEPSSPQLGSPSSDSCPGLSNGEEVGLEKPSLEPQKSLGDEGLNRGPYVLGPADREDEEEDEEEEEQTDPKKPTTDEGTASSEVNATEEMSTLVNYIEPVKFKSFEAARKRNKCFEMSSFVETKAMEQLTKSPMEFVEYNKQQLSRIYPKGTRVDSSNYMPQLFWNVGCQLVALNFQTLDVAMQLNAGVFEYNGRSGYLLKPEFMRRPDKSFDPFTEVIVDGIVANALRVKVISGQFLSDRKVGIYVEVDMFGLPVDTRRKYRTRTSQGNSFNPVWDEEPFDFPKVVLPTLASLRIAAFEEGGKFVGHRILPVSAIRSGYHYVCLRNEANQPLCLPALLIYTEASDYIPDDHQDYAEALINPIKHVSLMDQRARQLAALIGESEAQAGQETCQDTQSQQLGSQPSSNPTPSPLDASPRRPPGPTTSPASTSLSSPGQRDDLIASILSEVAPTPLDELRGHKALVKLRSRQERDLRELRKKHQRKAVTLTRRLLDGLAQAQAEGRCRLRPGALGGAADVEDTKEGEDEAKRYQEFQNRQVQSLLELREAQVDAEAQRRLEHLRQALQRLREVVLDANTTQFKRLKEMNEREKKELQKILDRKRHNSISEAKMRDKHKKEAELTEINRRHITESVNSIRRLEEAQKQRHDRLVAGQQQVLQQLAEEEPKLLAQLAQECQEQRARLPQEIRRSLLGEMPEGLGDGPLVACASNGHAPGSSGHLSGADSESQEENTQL

[5] = biological target: 1-phosphatidylinositol 4,5-bisphosphate phosphodiesterase gamma-1 (Homo sapiens, UniProt P19174); experiment: Counterscreen for inhibitors of phospholipase C isozymes (PLC-B3): Fluorescence-based biochemical high throughput dose response assay to identify inhibitors of phospholipase C isozymes (PLC-gamma1).
1-phosphatidylinositol 4,5-bisphosphate phosphodiesterase gamma-1, sequence (P19174 whole entry): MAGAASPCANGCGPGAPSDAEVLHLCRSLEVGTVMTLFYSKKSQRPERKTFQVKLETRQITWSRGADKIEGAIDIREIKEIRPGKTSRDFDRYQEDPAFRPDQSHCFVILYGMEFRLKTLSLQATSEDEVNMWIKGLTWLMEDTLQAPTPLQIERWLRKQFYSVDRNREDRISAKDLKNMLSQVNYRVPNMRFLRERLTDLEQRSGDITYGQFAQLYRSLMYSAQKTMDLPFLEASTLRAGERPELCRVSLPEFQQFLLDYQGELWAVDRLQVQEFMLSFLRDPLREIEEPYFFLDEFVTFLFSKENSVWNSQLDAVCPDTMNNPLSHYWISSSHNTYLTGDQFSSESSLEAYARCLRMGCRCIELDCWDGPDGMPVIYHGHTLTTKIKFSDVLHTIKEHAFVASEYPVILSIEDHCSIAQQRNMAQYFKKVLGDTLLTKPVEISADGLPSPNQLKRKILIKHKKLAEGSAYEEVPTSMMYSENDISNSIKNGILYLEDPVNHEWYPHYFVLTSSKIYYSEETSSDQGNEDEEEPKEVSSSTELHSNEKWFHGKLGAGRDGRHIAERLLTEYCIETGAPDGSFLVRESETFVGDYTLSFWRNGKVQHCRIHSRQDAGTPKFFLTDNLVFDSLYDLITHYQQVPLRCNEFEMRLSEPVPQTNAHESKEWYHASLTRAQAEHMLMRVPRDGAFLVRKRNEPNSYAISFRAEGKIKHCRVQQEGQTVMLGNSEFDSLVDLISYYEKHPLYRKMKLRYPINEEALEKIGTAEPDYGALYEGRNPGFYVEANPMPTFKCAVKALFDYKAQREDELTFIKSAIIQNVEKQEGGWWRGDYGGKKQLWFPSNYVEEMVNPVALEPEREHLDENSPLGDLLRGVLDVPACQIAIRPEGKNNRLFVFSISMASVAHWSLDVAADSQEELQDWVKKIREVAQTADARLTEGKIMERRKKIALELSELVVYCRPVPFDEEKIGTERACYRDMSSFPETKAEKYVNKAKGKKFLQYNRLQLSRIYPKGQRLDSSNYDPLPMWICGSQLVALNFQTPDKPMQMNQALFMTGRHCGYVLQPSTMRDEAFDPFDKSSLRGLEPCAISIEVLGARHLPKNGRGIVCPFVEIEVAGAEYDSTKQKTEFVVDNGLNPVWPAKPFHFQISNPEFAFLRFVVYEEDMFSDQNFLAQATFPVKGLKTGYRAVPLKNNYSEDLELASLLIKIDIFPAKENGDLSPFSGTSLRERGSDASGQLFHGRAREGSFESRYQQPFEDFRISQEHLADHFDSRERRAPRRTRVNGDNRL

[6] = biological target: T1, Rac GTPase-activating protein 1 (Homo sapiens, UniProt Q9H0H5); experiment: MgcRacGAP GTPase-activating activity inhibitors, confirmation, biochemical, ADP Hunter fluorescence, primary and confirmatory (AID 624330); format: functional
T1 sequence (Q9H0H5 whole entry): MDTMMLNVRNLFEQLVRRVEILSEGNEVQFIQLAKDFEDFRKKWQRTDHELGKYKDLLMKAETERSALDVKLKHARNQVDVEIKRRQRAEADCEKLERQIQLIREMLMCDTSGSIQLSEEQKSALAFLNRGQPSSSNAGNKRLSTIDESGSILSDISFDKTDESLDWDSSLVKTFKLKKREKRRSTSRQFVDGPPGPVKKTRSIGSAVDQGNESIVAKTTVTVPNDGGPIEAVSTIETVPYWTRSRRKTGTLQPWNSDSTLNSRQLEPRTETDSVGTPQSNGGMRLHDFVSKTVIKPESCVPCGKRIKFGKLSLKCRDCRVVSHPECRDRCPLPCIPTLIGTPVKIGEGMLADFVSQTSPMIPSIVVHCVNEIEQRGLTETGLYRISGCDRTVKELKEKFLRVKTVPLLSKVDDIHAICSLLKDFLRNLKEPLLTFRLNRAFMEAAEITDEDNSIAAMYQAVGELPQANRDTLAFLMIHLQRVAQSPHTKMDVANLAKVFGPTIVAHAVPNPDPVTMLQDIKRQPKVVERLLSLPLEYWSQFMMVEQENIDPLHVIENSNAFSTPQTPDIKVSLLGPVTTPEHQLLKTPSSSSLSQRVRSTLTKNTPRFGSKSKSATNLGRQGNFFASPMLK

Escherichia coli [7] = experiment: microbe, parasite or virus in culture; remark: listed apart in the source
Vero [8] = experiment: cells; format: functional; conditions: Chlorocebus sabaeus
[9] = human group III sPLA2 inhibitors, dose response, biochemical, QFRET, IC50 (AID 743457);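 note: green fluorescence rise as the enzyme cleaves BODIPY PC-A2 in liposomes; potency for inhibition of the enzyme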
Vero [10] = experiment: cells; format: functional, cell-based; conditions: Chlorocebus sabaeus
[11] = biological target: T2, Short transient receptor potential channel 4 (Mus musculus, UniProt Q9QUQ5); experiment: mouse TRPC4 channel activators, dose response, cell-based, HEK293 TRPC4/mu-opioid, Fluo-4 calcium (AID 434937); format: functional
T2 sequence (Q9QUQ5 whole entry): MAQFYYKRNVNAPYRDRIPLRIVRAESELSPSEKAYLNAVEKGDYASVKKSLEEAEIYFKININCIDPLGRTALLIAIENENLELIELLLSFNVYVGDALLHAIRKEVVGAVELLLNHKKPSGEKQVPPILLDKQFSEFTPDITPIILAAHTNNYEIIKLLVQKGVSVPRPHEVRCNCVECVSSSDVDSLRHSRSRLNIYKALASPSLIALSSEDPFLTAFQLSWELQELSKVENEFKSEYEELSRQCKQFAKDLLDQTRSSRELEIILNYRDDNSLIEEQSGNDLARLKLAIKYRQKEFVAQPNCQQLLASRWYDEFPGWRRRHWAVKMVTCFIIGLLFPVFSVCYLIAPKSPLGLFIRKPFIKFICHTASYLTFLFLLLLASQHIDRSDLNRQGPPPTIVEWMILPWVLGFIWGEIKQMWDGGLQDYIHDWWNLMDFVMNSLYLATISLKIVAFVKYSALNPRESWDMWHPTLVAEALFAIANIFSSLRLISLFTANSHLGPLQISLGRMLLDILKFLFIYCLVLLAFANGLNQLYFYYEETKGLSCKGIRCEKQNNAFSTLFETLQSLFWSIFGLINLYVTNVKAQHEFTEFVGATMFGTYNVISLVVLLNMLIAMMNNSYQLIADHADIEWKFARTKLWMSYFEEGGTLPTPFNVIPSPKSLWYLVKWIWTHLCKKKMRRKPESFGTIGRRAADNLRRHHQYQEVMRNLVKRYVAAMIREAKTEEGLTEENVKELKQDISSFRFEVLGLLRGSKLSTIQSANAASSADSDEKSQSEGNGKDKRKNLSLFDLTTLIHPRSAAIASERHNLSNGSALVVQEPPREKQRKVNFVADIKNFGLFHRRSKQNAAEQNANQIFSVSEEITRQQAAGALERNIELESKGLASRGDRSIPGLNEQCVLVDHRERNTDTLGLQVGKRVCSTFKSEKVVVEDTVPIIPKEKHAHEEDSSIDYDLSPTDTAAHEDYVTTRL

CAAX prenyl protease 2 [12] = biological target: CAAX prenyl protease 2 (Homo sapiens, UniProt Q9Y256); experiment: human Rce1 protease inhibitors, dose response, biochemical, yeast membranes, quenched-peptide fluorescence, cherry-pick (AID 588849)
CAAX prenyl protease 2 (Homo sapiens, UniProt Q9Y256), sequence (Q9Y256 whole entry): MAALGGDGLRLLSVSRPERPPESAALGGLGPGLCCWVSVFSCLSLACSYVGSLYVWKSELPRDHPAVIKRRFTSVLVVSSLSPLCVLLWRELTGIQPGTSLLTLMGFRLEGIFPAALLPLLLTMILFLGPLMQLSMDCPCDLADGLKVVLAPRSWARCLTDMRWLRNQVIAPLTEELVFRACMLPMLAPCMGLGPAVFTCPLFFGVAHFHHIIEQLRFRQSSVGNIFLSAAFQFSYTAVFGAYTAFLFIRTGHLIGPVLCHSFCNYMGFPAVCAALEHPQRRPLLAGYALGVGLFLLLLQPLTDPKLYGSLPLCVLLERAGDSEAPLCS

Trypsin = Trypsin (Sus scrofa, UniProt P00761); experiment: porcine trypsin inhibitors, dose response, selectivity assay for Rce1 protease inhibitor project, biochemical, quenched peptide fluorescence, cherry-pick (AID 488789)
Trypsin, sequence (P00761 whole entry): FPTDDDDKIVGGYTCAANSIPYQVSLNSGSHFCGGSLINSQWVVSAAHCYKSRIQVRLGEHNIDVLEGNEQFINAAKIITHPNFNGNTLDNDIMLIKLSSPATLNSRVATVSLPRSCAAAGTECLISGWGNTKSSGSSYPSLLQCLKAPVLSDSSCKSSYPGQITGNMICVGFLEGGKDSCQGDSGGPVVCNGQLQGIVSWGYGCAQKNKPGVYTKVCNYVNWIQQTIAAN

CAAX prenyl protease 2 [13] = biological target: T3, CAAX prenyl protease 2 (Saccharomyces cerevisiae S288c, UniProt Q03530); format: biochemical
T3 sequence (Q03530 whole entry): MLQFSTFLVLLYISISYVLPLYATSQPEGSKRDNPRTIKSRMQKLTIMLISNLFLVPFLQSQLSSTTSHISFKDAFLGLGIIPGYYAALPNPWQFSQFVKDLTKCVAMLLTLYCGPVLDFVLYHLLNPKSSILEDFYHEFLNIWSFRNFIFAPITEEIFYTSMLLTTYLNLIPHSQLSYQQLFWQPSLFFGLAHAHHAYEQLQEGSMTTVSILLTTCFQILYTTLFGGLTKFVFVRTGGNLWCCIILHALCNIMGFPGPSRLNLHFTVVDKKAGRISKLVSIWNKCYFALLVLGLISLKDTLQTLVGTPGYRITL

[14] = biological target: T4, Nuclear receptor subfamily 0 group B member 1 (Homo sapiens, UniProt P51843); experiment: Luminescence-based cell-based high throughput dose response assay for inhibitors of the orphan nuclear receptor subfamily 0, group B, member 1 (DAX1; NR0B1). [Related pubchem assays (depositor defined):AID504766, AID504790]; format: functional
T4 sequence (P51843 whole entry): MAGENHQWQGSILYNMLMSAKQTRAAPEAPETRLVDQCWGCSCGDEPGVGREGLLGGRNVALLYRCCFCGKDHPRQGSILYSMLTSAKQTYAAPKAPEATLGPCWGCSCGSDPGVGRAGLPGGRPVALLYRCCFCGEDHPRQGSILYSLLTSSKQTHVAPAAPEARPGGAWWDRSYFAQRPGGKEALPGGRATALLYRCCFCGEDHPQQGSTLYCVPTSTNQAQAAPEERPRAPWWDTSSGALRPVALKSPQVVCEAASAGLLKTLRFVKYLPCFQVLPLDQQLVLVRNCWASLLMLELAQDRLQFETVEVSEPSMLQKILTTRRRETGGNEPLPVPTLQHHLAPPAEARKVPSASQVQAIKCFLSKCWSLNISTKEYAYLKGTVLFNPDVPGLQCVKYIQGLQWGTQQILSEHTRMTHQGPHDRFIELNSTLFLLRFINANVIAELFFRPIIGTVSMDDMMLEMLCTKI

HEK293 = experiment: cells; format: functional, cell-based; conditions: Homo sapiens
[15] = Luminescence Cell-Based Dose Retest to Confirm Inhibitors of Cancer Stem Cells. [Related pubchem assays (depositor defined):AID2717, AID2721]; format: functional; conditions: Homo sapiens
[16] = cytotoxicity in HMLE control line with eGFP shRNA, dose response, counter-screen for HMLE_sh_ECad selective toxicity project, cell-based, HMLE_sh_eGFP, luminescence (AID 463074); format: functional, Homo sapiens;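 note: HMLE human mammary epithelial cells expressing control shRNA against eGFP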
[17] = biological target: T5, E3 ubiquitin-protein ligase XIAP (Homo sapiens, UniProt P98170); experiment: Counter Screen using XIAP-Bir3 for Chemical Antagonists of Bir1/2 domains of IAP-family anti-apoptotic proteins. [Related pubchem assays (depositor defined):AID1018, AID1449, AID1514, AID1638, AID1749, AID1750, AID488957, AID488963]
T5 sequence (P98170 whole entry): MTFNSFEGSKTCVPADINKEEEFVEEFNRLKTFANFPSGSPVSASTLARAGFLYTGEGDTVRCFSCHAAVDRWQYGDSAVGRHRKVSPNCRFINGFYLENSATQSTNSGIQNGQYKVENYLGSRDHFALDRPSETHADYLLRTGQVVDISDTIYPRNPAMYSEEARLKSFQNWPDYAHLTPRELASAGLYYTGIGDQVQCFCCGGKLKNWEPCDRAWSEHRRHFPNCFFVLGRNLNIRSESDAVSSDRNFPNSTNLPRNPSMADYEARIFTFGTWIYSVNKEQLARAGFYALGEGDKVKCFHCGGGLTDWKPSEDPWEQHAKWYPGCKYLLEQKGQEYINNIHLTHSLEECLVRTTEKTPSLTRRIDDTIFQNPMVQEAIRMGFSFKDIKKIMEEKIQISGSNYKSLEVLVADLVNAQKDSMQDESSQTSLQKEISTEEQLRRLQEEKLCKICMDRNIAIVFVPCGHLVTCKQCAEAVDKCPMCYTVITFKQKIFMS

[18] = biological target: T6, Tyrosine-protein phosphatase non-receptor type 7 (Homo sapiens, UniProt P35236); format: functional
T6 sequence (P35236 whole entry): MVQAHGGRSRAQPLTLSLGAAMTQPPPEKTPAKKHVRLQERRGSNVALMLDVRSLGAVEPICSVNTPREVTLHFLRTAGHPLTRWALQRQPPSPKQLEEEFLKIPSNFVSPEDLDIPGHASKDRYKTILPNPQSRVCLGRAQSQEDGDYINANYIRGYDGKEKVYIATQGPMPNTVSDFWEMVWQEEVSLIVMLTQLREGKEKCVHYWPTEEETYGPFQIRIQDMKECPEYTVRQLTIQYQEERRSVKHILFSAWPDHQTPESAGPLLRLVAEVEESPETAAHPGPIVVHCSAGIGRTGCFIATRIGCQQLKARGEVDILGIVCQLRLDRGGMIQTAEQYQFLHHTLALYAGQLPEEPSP

[19] = biological target: T7, Dual specificity protein phosphatase 6 (Rattus norvegicus, UniProt Q64346); format: functional
T7 sequence (Q64346 whole entry): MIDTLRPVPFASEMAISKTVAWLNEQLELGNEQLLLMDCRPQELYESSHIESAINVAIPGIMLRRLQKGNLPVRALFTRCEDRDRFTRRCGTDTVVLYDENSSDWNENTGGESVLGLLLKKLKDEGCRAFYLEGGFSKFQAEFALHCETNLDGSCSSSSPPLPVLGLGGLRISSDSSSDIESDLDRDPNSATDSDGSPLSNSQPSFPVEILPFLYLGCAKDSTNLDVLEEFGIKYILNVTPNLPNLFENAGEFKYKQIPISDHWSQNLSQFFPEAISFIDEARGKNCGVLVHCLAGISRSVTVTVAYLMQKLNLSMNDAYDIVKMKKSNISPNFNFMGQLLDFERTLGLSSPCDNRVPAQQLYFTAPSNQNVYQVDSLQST

[20] = biological target: T5, E3 ubiquitin-protein ligase XIAP; experiment: XIAP antagonists, biochemical, IAP family, fluorescence polarization (AID 1018); format: functional
[21] = biological target: T7, Dual specificity protein phosphatase 6
[22] = biological target: Glyceraldehyde-3-phosphate dehydrogenase (Homo sapiens, UniProt P04406)
[23] = biological target: Glucose-6-phosphate 1-dehydrogenase (Homo sapiens, UniProt P11413); experiment: human G6PD enzyme inhibitors, dose response, selectivity assay for P. falciparum G6PD inhibitor project, biochemical, fluorescence (AID 504792); format: functional
Glucose-6-phosphate 1-dehydrogenase, sequence (P11413 whole entry): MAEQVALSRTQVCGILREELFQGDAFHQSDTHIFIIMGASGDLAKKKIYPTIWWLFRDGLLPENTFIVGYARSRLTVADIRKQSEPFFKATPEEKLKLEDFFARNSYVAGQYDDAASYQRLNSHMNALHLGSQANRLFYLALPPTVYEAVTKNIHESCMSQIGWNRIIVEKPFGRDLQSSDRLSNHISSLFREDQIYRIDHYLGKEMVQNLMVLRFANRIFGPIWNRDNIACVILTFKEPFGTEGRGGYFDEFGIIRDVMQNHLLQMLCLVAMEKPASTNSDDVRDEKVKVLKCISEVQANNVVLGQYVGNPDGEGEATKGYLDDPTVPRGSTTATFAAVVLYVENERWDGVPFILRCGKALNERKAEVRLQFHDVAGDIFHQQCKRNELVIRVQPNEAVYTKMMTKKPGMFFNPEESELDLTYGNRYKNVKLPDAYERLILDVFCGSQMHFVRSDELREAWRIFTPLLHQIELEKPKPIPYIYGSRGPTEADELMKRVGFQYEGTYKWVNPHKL

Q: For `C=C1c2cccc(O)c2C(=O)C2=C(O)[C@]3(O)C(=O)C(C(N)=O)=C(O)[C@@H](N(C)C)[C@@H]3[C@@H](O)[C@H]12` [METHACYCLINE HYDROCHLORIDE], which EC50 [1] is on record?
A: > 100 µM (active)

Q: What about the EC50 [2] of the same molecule?
A: 0.099 µM (active)

Q: And the AC50 (Escherichia coli [3])?
A: 29.5 µM (active)

Q: And the IC50 (NS3)?
A: > 109 µM (not active)

Q: And the EC50 (Streptococcus)?
A: 0.109 µM (active)

Q: What about the IC50 [4] of the same molecule?
A: > 122 µM (inactive)

Q: And the IC50 [5]?
A: > 122 µM (inactive)

Q: And the IC50 [6]?
A: 66.8 µM (active)

Q: What about the AC50 (Escherichia coli [7]) of the same molecule?
A: 0.707 µM (active)

Q: Which results are given for `COc1ccc(C(=O)NC(=S)NNC(=O)c2cccc(C)c2)cc1`?
A: CC50 (Vero [8]): > 25 µM (active); IC50 [9]: 75.7 µM (inactive); IC50 (Vero [10]): 23.7 µM (active); EC50 [11]: 3.35 µM (active)

Q: What does the source list for `CCOc1ccc(S(=O)(=O)Nc2cc(OC)c(OC)cc2C(=O)O)cc1`?
A: AC50 (CAAX prenyl protease 2 [12]): 4.23 µM (active); AC50 (Trypsin): 7.53 µM (active); AC50 (CAAX prenyl protease 2 [13]): 9.8 µM (active)

Q: For `Cc1ccc2nc(-c3ccc(NC(=S)NCC(C)(C)CN(C)C)cc3)sc2c1`, which IC50 [14] is on record?
A: > 67.5 µM (inactive)

Q: What about the IC50 (HEK293) of the same molecule?
A: > 67.5 µM (inactive)

Q: What about the IC50 (Vero [10]) of the same molecule?
A: 15.4 µM (active)

Q: For `Cc1ccc(P(=S)(c2ccc(C)o2)N2CCOCC2)o1`, which AC50 [15] is on record?
A: > 195 µM (inactive)

Q: What about the AC50 [16] of the same molecule?
A: 78.2 µM (active)

Q: With `O=C(O)[C@@H](O)c1ccccc1` as the molecule, how does the IC50 [17] read?
A: > 100 µM (inactive)

Q: And the IC50 [18]?
A: > 100 µM (not active)

Q: What about the IC50 [19] of the same molecule?
A: > 100 µM (inactive)

Q: What about the IC50 [20] of the same molecule?
A: > 100 µM (not active)

Q: And the IC50 [21]?
A: > 100 µM (inactive)

Q: And the IC50 [22]?
A: > 100 µM (not active)

Q: Which AC50 (Escherichia coli [3]) does the source give for `Cc1ccc(-c2[nH]nc3c2C(c2ccccc2)N(c2ccc(C(=O)O)cc2)C3=O)cc1` (configuration not stated) here?
A: 35.3 µM (active)

Q: Which AC50 (Escherichia coli [7]) does the source give for `C/C=C(/C)C(=O)Nc1cccc(C2=NOC3(C2)C[C@H](C(N)=O)N(C(=O)c2ccc(Cl)cc2)C3)c1` (some centres not stated) here?
A: 48 µM (active)

Q: Which AC50 [15] does the source give for `Cn1c(C(=O)N2CCCC(C(=O)NCCCSC3CCCCC3)C2)cc2sccc21` (configuration not stated) here?
A: 5.7 µM (active)

Q: And the AC50 [16]?
A: 21.6 µM (active)

Q: Which IC50 [23] does the source give for `C=CCOc1c(Cl)cc(CNc2ccc3[nH]c(O)nc3c2)cc1OC` here?
A: > 80 µM (inactive)
